Data on one molecule can be found in article PMC8968952, “Modulation of ERCC1-XPF Heterodimerization Inhibition via Structural Modification of Small Molecule Inhibitor Side-Chains” (Frontiers in Oncology, 2022).

Data set [1] can be described thus: Distribution coefficient (log D at pH 7.4). Type of data set: physicochemical. On the procedure: The ADME (absorption, distribution, metabolism, and excretion) profile of our lead compound 6 was determined by standard protocols carried out by WuXi AppTec (Shanghai) Co (https://www.wuxiapptec.com/). The following tests were conducted: distribution coefficient (log D at pH 7.4), aqueous solubility (Kinetic), metabolic stability in human liver microsomes and cryopreserved human hepatocytes, bidirectional permeability in Caco-2 cells, serum protein binding, and cytochrome P450 (CYP) inhibition (CYP1A2, CYP2C9, CYP2C19, CYP2D6, and CYP3A4-M).

In data set [2] the target is T1, ERCC1-XPF (Homo sapiens, UniProt Q92889).
T1 construct: the final purity of the full-length ERCC1-XPF heterodimer was determined to be ~35%; His6; made in house; host or cells: E. coli BL21(DE3)
T1 sequence (Q92889 1-916): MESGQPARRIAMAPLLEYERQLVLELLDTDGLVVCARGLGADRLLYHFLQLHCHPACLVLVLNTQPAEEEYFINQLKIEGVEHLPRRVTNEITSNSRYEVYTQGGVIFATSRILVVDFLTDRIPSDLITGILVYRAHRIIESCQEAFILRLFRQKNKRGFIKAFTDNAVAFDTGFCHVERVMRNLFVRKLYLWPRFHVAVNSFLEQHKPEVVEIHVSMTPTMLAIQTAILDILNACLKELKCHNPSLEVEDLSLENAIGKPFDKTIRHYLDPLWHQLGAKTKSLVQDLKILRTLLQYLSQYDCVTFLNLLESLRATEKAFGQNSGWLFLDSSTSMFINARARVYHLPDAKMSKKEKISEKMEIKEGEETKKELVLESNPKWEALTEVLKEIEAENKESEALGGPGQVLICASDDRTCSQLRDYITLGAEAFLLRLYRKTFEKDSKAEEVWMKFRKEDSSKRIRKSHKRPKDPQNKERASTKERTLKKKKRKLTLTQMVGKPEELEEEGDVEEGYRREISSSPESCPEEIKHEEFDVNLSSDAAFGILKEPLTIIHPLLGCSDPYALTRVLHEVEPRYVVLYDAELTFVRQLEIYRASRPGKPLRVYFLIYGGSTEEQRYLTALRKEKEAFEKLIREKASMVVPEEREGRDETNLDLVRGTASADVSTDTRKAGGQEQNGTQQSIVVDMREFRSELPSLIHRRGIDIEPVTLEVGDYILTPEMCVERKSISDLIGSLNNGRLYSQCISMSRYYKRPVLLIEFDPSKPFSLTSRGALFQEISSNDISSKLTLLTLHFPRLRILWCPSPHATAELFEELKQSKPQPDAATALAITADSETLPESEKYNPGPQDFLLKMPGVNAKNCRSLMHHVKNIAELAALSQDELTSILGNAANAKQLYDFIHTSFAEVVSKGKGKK
The experiment in a line: Steady state intrinsic fluorescence quenching binding assay. The note with it: excitation 295 nm, emission 330 nm. On the procedure:
Steady-state fluorescence spectra were measured at room temperature on a PerkinElmer LS-55 spectrofluorometer (Freemont, CA) as previously described ([70]). In studying the effects of inhibitors on protein fluorescence intensities, additions to protein samples were made from inhibitor stock solutions in DMSO, keeping the protein dilution below 3%. Data were plotted using GraphPad Prism version 5.04 software (San Diego, California)
Investigation of the binding of compound 6 to ERCC1-XPF was carried out via intrinsic fluorescence spectroscopy. The tryptophan residues of ERCC1-XPF were irradiated at 295 nm and the emission at 330 nm was monitored. Upon addition of compound 6 quenching of the intrinsic fluorescence of the protein was observed, consistent with ligand binding to a protein. The binding affinity was determined by plotting emission at 330 nm against increasing concentration of compound 6 ( Figure 3C ).

For data set [3], the target named is T1, ERCC1-XPF. As to the kind of experiment: Microplate fluorescence incision assay (endonuclease activity). Type of data set: biochemical. An excerpt: Recombinant human ERCC1–XPF wild-type protein (containing polyhistidine (His-6) tags) was expressed from a bicistronic plasmid (kindly provided by Dr. Richard Wood, University of Texas MD Anderson Cancer Center, Smithville, TX) in the E. coli BL21(DE3) strain, Following previously described procedures ([70], [78]) the proteins extracted from E. coli were eluted from a ProBond Nickel-Chelating Resin (Thermo Fisher Scientific) and then a Hi-trap heparin column (GE Healthcare). Fractions containing ERCC1–XPF were dialyzed, concentrated, and stored at −80°C in 10 mM HEPES, pH 7.4, 2.5 mM β-mercaptoethanol, 0.01% CHAPS, 0.25 mM EDTA, 50% glycerol, and 25 mM NaCl. Based on polyacrylamide gel separation and Coomassie Blue staining, the final purity of the full-length ERCC1-XPF heterodimer was determined to be ~35%.
We employed a previously described protocol ([60], [70], [78]) in which the incision of the stem–loop substrate [6-FAM-5′-[…](20T)[…]-3′-dabcyl] (100 nM in 50 mM Tris-HCl, pH 8, 20 mM NaCl, 0.5 mM DDT, and 0.75 mM MnCl2) mediated by ERCC1-XPF (25 ng) in a total volume of 20 μL at 25°C was monitored by fluorescence using a FLUOstar Optima fluorimeter (BMG Labtech) with Optima software and excitation and emission wavelengths of 485 and 520 nm, respectively, for 5.5 min. The final concentration of inhibitor in the reaction was 10 μM prepared from a 200 μM stock solution in DMSO. With a molecular weight of 151 KDa for the XPF-ERCC1 heterodimer, a concentration of 25 ng of protein in 20 µl reaction buffer and a purity of 35%, the molar concentration of the enzyme was estimated to be 2.9 nM. Data were plotted using Microsoft Excel 2016.
An in vitro fluorescence-based assay was used to assess the ability of the synthesized compounds to inhibit the endonuclease activity of ERCC1-XPF. This assay has been previously described ([60], [70], [78]) and makes use of a stem-loop DNA substrate with a 5’-FAM fluorescent dye, and a 3’-dabcyl quencher. When ERCC1-XPF can cleave the DNA substrate, a 5’-FAM containing molecule is liberated from the stem-loop (and the quencher) and the fluorescence of the solution increases. The increase of the fluorescence of the solution can be observed in Figure 3A , in the absence of any inhibitor. To determine the influence of the inhibitory compounds, the protein was preincubated for 10 minutes with 10 μM of each inhibitor prior to addition of the substrate.

Molecules are shown by their SMILES. Several values for one entry are separate records, joined by “and”; a condition that tells them apart may be missing. Equal entries are not always repeated.

Consider `COc1ccc2nc3cc(Cl)ccc3c(Nc3ccc(O)c(CN4CCN(CCN(C(C)C)C(C)C)CC4)c3)c2c1` [Compound 6], for which the logD (as a rule, the decadic logarithm of the distribution of all forms, ionised or not, between an organic phase and buffer at a given pH) in data set [1] came to 3.95. For the same molecule, the Kd – broadly, the concentration at which binding is half-saturated – in data set [2] turned out to be 140 ± 10 nM. In addition, the IC50 (in general, the concentration that inhibits the measured activity by half) in data set [3] is 167 nM and 170 nM. The “inhibition of ERCC1-XPF endonuclease activity (in words, vs control and 4)” value in data set [3] (10 μM inhibitor, 10 min preincubation) was “increased inhibition of ERCC1-XPF endonuclease activity relative to 4”. For the same molecule, in data set [3] (10 μM inhibitor, at 5.5 minutes), the “decrease of ERCC1-XPF endonuclease activity” value was 94%.
